Source: ChEMBL document CHEMBL5465560, “Selectivity Literature for EUbOPEN Chemogenomic Library” (2024)
Blank lines part the entries; values can stand above or below the molecule they belong to.

Legend:
[1] = target: T1, TGF-beta receptor type-1 (Homo sapiens) (UniProt P36897); assay: Selectivity interaction (KinomeScan (DiscoverX)) EUB0000666a TGFBR1; settings: at 10 µM
T1 sequence (whole entry): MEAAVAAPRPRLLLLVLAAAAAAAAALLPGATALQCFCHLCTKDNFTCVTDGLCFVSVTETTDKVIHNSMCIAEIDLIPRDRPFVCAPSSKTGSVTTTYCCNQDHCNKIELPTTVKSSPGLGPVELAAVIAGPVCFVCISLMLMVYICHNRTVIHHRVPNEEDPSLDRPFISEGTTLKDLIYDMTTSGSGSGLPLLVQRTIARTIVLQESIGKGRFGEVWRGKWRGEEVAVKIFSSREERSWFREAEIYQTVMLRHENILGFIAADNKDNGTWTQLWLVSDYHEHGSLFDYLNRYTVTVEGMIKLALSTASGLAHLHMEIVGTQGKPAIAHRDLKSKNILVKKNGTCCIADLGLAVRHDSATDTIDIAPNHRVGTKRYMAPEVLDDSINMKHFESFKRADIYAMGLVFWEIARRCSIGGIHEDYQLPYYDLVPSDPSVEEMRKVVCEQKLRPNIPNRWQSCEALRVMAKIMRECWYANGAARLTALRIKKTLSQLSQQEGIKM

[2] = target: T2, Mitogen-activated protein kinase kinase kinase kinase 2 (Homo sapiens) (UniProt Q12851); assay: Selectivity interaction (ProQinase) EUB0000171b MAP4K2
T2 sequence (whole entry): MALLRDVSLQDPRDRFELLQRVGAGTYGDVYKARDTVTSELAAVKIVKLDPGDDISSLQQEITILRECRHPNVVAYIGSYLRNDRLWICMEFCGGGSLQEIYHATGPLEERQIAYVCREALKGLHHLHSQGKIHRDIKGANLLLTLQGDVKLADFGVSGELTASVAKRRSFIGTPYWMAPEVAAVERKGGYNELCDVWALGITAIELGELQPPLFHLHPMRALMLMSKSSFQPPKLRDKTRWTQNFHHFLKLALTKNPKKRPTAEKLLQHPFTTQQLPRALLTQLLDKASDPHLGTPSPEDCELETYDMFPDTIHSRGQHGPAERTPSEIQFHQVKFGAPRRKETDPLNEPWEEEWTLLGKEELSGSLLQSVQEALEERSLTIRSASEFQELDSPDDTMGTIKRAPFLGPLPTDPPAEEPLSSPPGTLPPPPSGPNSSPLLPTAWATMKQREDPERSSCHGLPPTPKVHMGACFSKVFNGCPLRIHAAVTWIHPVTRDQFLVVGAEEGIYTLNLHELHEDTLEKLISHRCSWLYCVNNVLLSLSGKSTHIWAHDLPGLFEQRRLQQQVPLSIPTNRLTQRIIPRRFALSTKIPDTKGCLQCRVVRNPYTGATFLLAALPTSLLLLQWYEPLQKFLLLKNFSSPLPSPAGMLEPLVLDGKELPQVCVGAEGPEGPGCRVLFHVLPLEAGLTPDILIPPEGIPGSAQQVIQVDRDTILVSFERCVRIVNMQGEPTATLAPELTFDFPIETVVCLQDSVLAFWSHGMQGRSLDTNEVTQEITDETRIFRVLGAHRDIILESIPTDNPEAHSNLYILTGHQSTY

[3] = target: T3, Serine/threonine-protein kinase 17A (Homo sapiens) (UniProt Q9UEE5); assay: Selectivity interaction (Kinase panel (DSF assay)) EUB0001558a STK17A
T3 sequence (whole entry): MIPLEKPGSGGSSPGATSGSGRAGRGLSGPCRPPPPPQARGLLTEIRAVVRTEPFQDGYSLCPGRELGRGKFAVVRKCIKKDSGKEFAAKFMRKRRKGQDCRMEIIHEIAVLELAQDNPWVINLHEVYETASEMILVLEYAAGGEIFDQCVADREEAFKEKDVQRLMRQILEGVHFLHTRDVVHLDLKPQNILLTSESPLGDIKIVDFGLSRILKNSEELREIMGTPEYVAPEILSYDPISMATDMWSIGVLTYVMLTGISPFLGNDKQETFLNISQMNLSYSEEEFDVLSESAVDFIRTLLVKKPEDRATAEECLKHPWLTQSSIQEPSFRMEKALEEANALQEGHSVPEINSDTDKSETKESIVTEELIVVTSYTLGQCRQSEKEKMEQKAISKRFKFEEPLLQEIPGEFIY

[4] = target: T4, Tyrosine-protein kinase TXK (Homo sapiens) (UniProt P42681); assay: Selectivity interaction (KinomeScan (DiscoverX)) EUB0000655a TXK; settings: at 10 µM
T4 sequence (whole entry): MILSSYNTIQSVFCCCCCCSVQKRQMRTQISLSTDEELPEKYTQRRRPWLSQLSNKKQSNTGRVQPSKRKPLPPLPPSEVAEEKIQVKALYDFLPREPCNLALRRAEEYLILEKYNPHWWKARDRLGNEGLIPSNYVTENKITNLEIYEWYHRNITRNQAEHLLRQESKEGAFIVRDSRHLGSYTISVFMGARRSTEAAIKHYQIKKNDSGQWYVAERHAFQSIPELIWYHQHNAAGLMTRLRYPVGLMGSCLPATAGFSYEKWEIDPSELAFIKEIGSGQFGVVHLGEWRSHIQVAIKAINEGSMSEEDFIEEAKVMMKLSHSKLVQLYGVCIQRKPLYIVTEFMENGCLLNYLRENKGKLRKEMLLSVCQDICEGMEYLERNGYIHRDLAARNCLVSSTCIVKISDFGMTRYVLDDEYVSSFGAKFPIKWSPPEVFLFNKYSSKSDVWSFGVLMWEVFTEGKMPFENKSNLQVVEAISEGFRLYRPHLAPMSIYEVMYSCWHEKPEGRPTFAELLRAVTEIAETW

[5] = target: Serine/threonine-protein kinase Nek7 (Homo sapiens) (UniProt Q8TDX7); settings: at 10 µM
Serine/threonine-protein kinase Nek7 (Homo sapiens), sequence (Q8TDX7 whole entry, looked up): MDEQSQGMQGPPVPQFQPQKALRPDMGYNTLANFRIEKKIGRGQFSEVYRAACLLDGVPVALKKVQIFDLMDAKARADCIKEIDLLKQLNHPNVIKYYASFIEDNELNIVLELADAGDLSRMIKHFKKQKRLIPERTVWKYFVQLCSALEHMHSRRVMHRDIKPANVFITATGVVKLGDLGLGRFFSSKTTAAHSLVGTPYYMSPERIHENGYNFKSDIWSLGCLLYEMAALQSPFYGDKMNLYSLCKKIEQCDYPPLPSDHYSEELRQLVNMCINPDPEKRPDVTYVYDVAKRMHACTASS

SMILES: O=C(NOC[C@H](O)CO)c1ccc(F)c(F)c1Nc1ccc(I)cc1F
% of control [1]: 100%

% of control ([2]; at 1 µM): 89%
% of control ([2]; at 5 µM): 50%
SMILES: C=CC(=O)Nc1cccc(C(=O)Nc2ccc(Nc3cc(-c4[nH]c(SC)nc4C)ccn3)cc2)c1

SMILES: CC(C)(O)[C@H](F)CN1Cc2cc(NC(=O)c3cnn4cccnc34)c(N3CCOCC3)cc2C1=O
dTM [3]: 0.9 K

SMILES: CN(C)CCOc1ccc(-c2nc(-c3ccncc3)c(-c3ccc4c(c3)CC/C4=N\O)[nH]2)cc1
% of control [4]: 97%

SMILES: Cc1cc([C@@H](C)Nc2ccccc2C(=O)O)c2nc(N3CCOCC3)cc(=O)n2c1 [AZD-6482]
% of control [5]: 100%
